For one data set, the system named is PANC‐1 cells. The data set is described as follows: Fluorescence imaging of PANC‐1 cells with labelled YW7 probes. Type of data set: cell-based, human. Particulars: 1, 2, 4 μM, 1 h; red filter 700–780 nm. The method, then: (§1) PANC‐1 and HPDE6‐C7 cells were seeded in six‐well plates at a density of 3 × 10^5 cells·mL^−1 and incubated overnight. The cells were incubated with 25 μM FITC‐YW7 for 30 min and 1 h for flow cytometry analysis of bound and internalized peptide, and cells were incubated with 1, 2, 4 μM FITC‐YW7 or Cy7‐YW7 for 1 h for fluorescence imaging of the live cells. Cells were washed with PBS three times and centrifuged for 5 min after 37 °C incubation. Si‐ANXA2‐ or si‐NC‐transfected PANC‐1 cells were detached with nonenzymatic dissociation solution from six‐well plates. 20 μM FITC‐YW7 was added to the suspended cells and incubated at 37 °C for 15 min. Cells were washed with PBS and centrifuged for 5 min repeating three times. The supernatant was then discarded and the cells were resuspended in PBS. Percent of total cells with fluorescent signals was determined by flow cytometry using a FACSCelesta flow cytometer (BD Biosciences, San Jose, CA, USA). Fluorescence intensity was quantified by an imaging system (Berthold LB983, Bad Wildbad, Sttugart, Germany).
(§2) Supplementary file MOL2-17-872-s002.tif: Fig. S3. Fluorescent‐labeled YW7 probes imaging in vitro. […] P values were determined using paired Student's t‐test. *P < 0.05 versus HPDE6‐C7 (Cy7‐YW7); ^# P < 0.05, ^## P < 0.01 versus PBS; ^$ P < 0.05, ^$$ P < 0.01 versus Cy7. […]

Data set [1] has as its system PANC‐1 and HPDE6‐C7 cells. In words: Fluorescence imaging, PANC‐1 versus HPDE6‐C7 cells. Type of data set: cell-based, human. How it is done:
as §1, §2

Another data set relates to PANC‐1 xenograft tumors. The data set is described as follows: In vivo NIRF imaging of PANC‐1 xenograft mice. More on the design: species or system mouse (BALB/c nude). The text has this:
During imaging, mice were anesthetized with 2% isoflurane.

The subject of data set [2] is ANXA2 (purified recombinant). In words: ANXA2 affinity column binding with LC/MS detection. The conditions noted are these: ANXA2 0.7 mg on CNBr‐activated Sepharose; 1 mg YW7; 1 h at 4 °C; UPLC‐G2XS‐QTOF/MS. The method, then: To prepare the ANXA2‐immobilized affinity column, CNBr‐activated Sepharose (GE Healthcare Bio‐Sciences AB, Uppsala, Sweden) was swelled by 1 mM HCl and coupling buffer. Purified recombinant ANXA2 of 0.7 mg was loaded onto the resin and incubated at 4 °C overnight. After blocking with ethanolamine, the resin was washed with 50 mM Tris–HCl (pH 8.0) and 50 mM Glycine‐0.5 M NaCl (pH 4.0) buffers alternatively for three rounds. Then, the resin was washed with PBS and 1 mg YW7 dissolved in DEPC was added to the ANXA2‐loaded resin. After binding for 1 h at 4 °C, the resin was washed again with 50 mM Tris–HCl (pH 8.0) and 50 mM Glycine‐0.5 M NaCl (pH 4.0) buffers. Eluents were eventually mixed with 50% acetonitrile and analyzed by UPLC‐G2XS‐QTOF/MS (Waters, Milford, MA, USA).

A further data set concerns ANXA2. In words: siRNA knockdown of ANXA2 in PANC‐1 cells (western blotting, qPCR). Type of data set: cell-based, human. Particulars: 48 h after transfection, lipofectamine 3000; n = 3. The method, then: ANXA2 expression in human cells and patients' tissues was determined by western blotting. Cells were lysed on ice in RIPA Lysis Buffer (Beyotime, Shanghai, China) with 1% PMSF for 30 min. Fresh tissues were suspended in RIPA Lysis Buffer with 1% PMSF, homogenized for 2 min, and then lysed on ice for another 30 min. The supernatant was collected and the protein concentration was determined after centrifuging for 10 min at 8000 g . The protein concentration was detected by BCA Protein Assay Kit (Beyotime). Proteins extracts were separated by 12% SDS/PAGE gel and then transferred to the PVDF membranes. Next, the membranes were blocked with 5% skimmed milk powder at room temperature for 1 h. Rabbit primary antibodies specific to ANXA2 (1 : 1000; Cell Signaling Technology, Billerica, CA, USA; #8235S) were used to incubate the membranes at 4 °C overnight. Anti‐β‐tubulin mouse primary antibodies (1 : 5000; EarthOx Life Science, Millbrae, CA, USA; E021040‐01) were applied as a loading control. […] The band density was quantified by IMAGEJ software (National Institutes of Health, Bethesda, MD, USA).
Small interfering RNA (primer sequences: forward 5′‐[…]‐3′ and reverse 5′‐[…]‐3′) was used to downregulate the expression of ANXA2 (si‐ANXA2). […] Knockdown efficiency was evaluated by western blotting and quantitative real‐time PCR. […]

For data set [3], the target named is T1, GST-fused ANXA2 recombinant protein (UniProt P07355 1-339).
T1 construct: product of 62 kD with GST; No cleavage of GST is described; The size of 62 kD would fit whole ANXA2 (36 kD) plus GST; also called GST-ANXA2; annexin A2; source: E. coli BL21 (DE3), purified (GST tag purification resin)
In words: MST; FITC-YW7 at constant concentration, unlabeled ANXA2 diluted in a gradient; MST buffer with 0.05% Tween-20; Monolith NT.115, standard capillaries; apparent KD. The conditions noted are these: both partners purified.

Data set [4] concerns the target T2, ANXA2 on pancreatic cells (human (endogenous in PANC-1 and …, UniProt P07355 1-339)).
T2 construct: annexin A2, endogenous in the human pancreatic cancer cell line PANC-1 and the normal human pancreatic ductal cell line HPDE6-C7; which cell line was used is told in each assay's format; also called annexin A2; source: endogenous, on PANC-1 cells; endogenous, on HPDE6-C7 cells
In words: other fluorescence titration; PANC-1 cells suspended in FITC-YW7 (0-1.5 μM), 37 °C, 30 min; washed with PBS; fluorescence of the cells read in a plate reader (490/518 nm); apparent Kd. Particulars: one partner purified.

Here are results for 4 molecules from publication PMC10158761, “Screening of an annexin‐A2‐targeted heptapeptide for pancreatic adenocarcinoma localization” (Molecular Oncology, 2022).

“Also recorded” adds a separate entry of the source. Primed or numbered codes have the meaning given here. Where no end group is shown, it is not given here. The star is where a group is joined. FITC = O=C1OC2(c3ccc(O)cc3Oc3cc(O)ccc32)c2ccc(NC(=S)*)cc21; PEG3′ = not defined here; Ahx = NCCCCCC(=O)O

T2 sequence (P07355 whole entry): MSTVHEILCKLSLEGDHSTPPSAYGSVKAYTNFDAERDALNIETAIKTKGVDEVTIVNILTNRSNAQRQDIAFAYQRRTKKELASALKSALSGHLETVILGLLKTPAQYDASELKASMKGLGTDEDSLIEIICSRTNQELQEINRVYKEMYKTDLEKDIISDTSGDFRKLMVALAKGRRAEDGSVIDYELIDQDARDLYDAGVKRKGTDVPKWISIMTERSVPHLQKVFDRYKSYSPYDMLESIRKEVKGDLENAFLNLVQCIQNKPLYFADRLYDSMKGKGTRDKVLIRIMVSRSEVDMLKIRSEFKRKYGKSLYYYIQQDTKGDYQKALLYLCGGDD
T1 sequence (P07355 whole entry, the tested form may be a part): as the sequence (P07355 whole entry) above

Turning to “Cy7‐YW7: Cy7 linked to the N terminal of YW7 peptide via spacer of PEG3; NIRF probe ({Cy7-PEG3′}-YWRGVYN)”, the “internalization by PANC‐1 cells, concentration dependence” value in the data set with PANC‐1 cells was “preferred to be internalized by PANC‐1 cells in a dose‐dependent manner”. The “fluorescence signal, PANC‐1 versus HPDE6‐C7” value in data set [1] (4 μM in PBS) is recorded as “stronger fluorescence signal of Cy7‐YW7 was detected after internalization into PANC‐1 cells compared to HPDE6‐C7”. In data set [1] (summary statement of abstract), the “uptake in PANC‐1 compared to HPDE6‐C7 cells” value is recorded as “significantly higher uptake in PANC‐1 cells”. For the same molecule, in the data set on PANC‐1 xenograft tumors (8 nmol i.v.), the “TBR, as quoted in discussion” value is listed as ~ 2.7 and the “earliest time of significant tumor‐to‐background contrast” value was 1 h. Moreover, the “tumor‐to‐background ratio (TBR)” value in the data set with PANC‐1 xenograft tumors (8 nmol i.v., 2.5 h after injection, n = 4, mean ± SD, P < 0.05 Cy7‐YW7 vs Cy7) is recorded as 2.7 ± 0.6. Besides, in the data set with PANC‐1 xenograft tumors (8 nmol i.v., Cy7‐YW7 versus Cy7, n = 4), the “tumor fluorescence / contrast” value was “stronger fluorescence signals in tumor tissues; also recorded: higher than Cy7; also recorded: enhanced tumor sensitivity and specificity from 1 h after injection”. For the same molecule, in the data set with PANC‐1 xenograft tumors (8 nmol i.v., images at 0, 1, 2, 2.5, 3 h), the “time of highest TBR after injection” value is listed as 2.5 h. In the data set with PANC‐1 xenograft tumors (intravenous injection, in abstract), the “TBR compared to Cy7 alone” value is recorded as ~ 2.7 ‐fold.

For the molecule YWRGVYN [YW7], in data set [2], the “binding to ANXA2 column” value was “eluted from ANXA2‐loading column after incubation with ANXA2 recombinant protein for 1 h and identified”.

With “si‐ANXA2: Small interfering RNA, forward 5′‐AGACCAAAGGUGUGGAUGAUU‐3′ and reverse 5′‐UCAUCCACACCUUUGGUCUUU‐3′ (chemistry not fully specified)”, the “ANXA2 protein and mRNA level after knockdown” value in the data set on ANXA2 is “Downregulated ANXA2 relative protein (D, E) and mRNA (F) levels”.

B1: FITC-labeled YW7 (peptide)
peptide: {FITC-Ahx}-YWRGVYN
notes: heptapeptide YW7 selected from the Ph.D.-7 phage display library; also called FITC-YW7; source: synthetic peptide, Sangon Biotech
B1: the values for the Kd in data set [3] and in data set [4] were 12 µM and 0.0866 µM, respectively.
